Molecules are shown by their SMILES.

One data set concerns MDA-MB-453 cells. Nature of the data set: CellTiter-Glo 2.0 viability assay, 10 days. The format is cell-based, human. The following applies: MDA-MB-453, 10 days of continuous exposure. Background: In ATP-based viability assays light output follows the ATP content of the culture.
The conditions of data set [1]: cited from earlier work.
Another data set has as its system CBP/p300 over BRD4. The note with it: selective CBP/p300 binder; cited from earlier work.

As for `CNC(=O)c1ccc(N2C(=S)N(c3ccc(C#N)c(C(F)(F)F)c3)C(=O)C2(C)C)cc1F` [Enzalutamide, enzalutamide], the “times less active than FT-6876 at inhibiting proliferation” value in the data set with MDA-MB-453 cells was determined as 45 times.

In the case of `COc1ccc(CCc2nc3cc(-c4c(C)noc4C)ccc3n2C[C@H](C)N2CCOCC2)cc1Cl` [SGC-CBP30], the microsomal stability entry in data set [1] is recorded as “poor microsomal stability”. Also, the “selectivity over BRD4 and other BRD and BET family members” value in the data set on CBP/p300 over BRD4 is on record as 40 fold.

The values above are taken from PMC10042772 (Targeted Oncology, 2023).
